Type in all cases: in vivo
For test [1], the system named is Scirpus juncoides Roxb. subsp. juncoides Roxb. (Sc). Briefly: Test for herbicidal effect during breeding period by paddy field water treatment (Test Example 5), Sc. Particulars: paddy field water treatment at 2-leaf stage, 25 g/10 a active ingredient, 30th day. The method, then: (§1) [table] <Test Example 5> Test For Herbicidal Effect During Breeding Period By Paddy Field Water Treatment A paddy field soil was filled in a plastic pot of 100 cm^2 and subjected to puddling. Seeds of Monochoria vaginalis Presl (Mo) and Scirpus juncoides Roxb. subsp. juncoides Roxb. (Sc) were sowed; water was filled in a depth of 3 cm; and breeding was made. When Mo reached a 1-leaf stage and Sc reached a 2-leaf stage, wettable powders produced in accordance with the Formulation 1 were diluted with water and dropped on the water surface. […] Then, breeding was made in a greenhouse. At the 30th day from the treatment, the herbicidal effect of each wettable powder was examined in accordance with the standard shown in Table 40.

Test [2] concerns Monochoria vaginalis Presl (Mo). Description: Test for herbicidal effect during breeding period by paddy field water treatment (Test Example 5), Mo. Particulars: paddy field water treatment at 1-leaf stage, 25 g/10 a active ingredient, 30th day. The method, then:
as §1

For test [3], the system named is Echinochloa oryzicola Vasing. (Eo). Briefly: Test for herbicidal effect by paddy field soil treatment (Test Example 1). Particulars: application amount (active ingredient) 100 g/10 a, examined at the 21st day from the treatment, index per Table 40. The procedure, abridged:
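Eo seeds sown in puddled paddy soil under 3 cm water; next day a water-diluted wettable powder was dropped onto the water surface at 100 g active ingredient per 10 ares. Herbicidal effect scored on a standard scale 21 days after treatment, greenhouse-grown.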

The test system of test [4] is Echinochloa crus-galli (L.) Beauv. var. crusgall (Ec). Description: Test for herbicidal effect by upland field soil treatment (Test Example 2), Ec. The procedure, abridged:
(§2)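 Echinochloa crus-galli and Setaria viridis were sown in upland field soil and covered, then the soil surface was sprayed with water-diluted wettable powder at 100 g active ingredient per 10 ares (100 liters per 10 ares). Plants were grown in a greenhouse and scored on a standard scale on day 21.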

Test [5] has as its system Echinochloa crus-galli (L.) Beauv. var. crusgalli (Ec). Description: Test for herbicidal effect by upland foliage treatment (Test Example 3). As to conditions: 100 g/10 a active ingredient, examined at 14th day. The procedure, abridged:
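Potted upland-soil Ec seedlings grown 2 weeks in greenhouse, then foliage-sprayed with water-diluted wettable powder at 100 L per 10 ares, giving 100 g active ingredient per 10 ares. Herbicidal effect scored on a graded standard 14 days after treatment.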

The test system of test [6] is Setaria viridis (L.) Beauv. (Se). Description: Test for herbicidal effect by upland field soil treatment (Test Example 2), Se. The procedure, abridged:
as §2

For test [7], the system named is Chenopodium album L. (Ch). Description: Test for herbicidal effect to broadleaf weeds by upland field soil treatment (Test Example 6), Ch. Particulars: 25 g/10 a active ingredient, 30th day. The method, then:
(§3) Test for herbicidal effect to broadleaf weeds by upland field soil treatment
(§4) An upland field soil was filled in a plastic pot of 80 cm^2. Seeds of Polygonum lapathifolium L. subsp. nodosum (Pers.) Kitam. (Po) and Chenopodium album L. (Ch) were sowed, followed by covering with the same soil. Wettable powders produced in accordance with the Formulation 1 were diluted with water and sprayed uniformly on the soil surface using a small sprayer, […] Then, breeding was made in a greenhouse. At the 30th day from the treatment, the herbicidal effect of each wettable powder was examined in accordance with the standard shown in Table 40.

The test system of test [8] is Polygonum lapathifolium L. subsp. nodosum (Pers.) Kitam. (Po). Briefly: Test for herbicidal effect to broadleaf weeds by upland field soil treatment (Test Example 6), Po. As to conditions: 25 g/10 a active ingredient, 30th day. The method, then:
as §3, §4

[9] abbreviates: application amount (active ingredient) 100 g/10 a, examined at the 21st day from the treatment, index per Table 40.
Where [10] appears, read: 100 g/10 a active ingredient, examined at 21st day.

As to `CCc1ccccc1CS(=O)(=O)C1=NOC(C)(CCl)C1` (stereo not drawn) [Comparative compound 1, reference compound], in test [1], the “Herbicidal effect to Sc” value is recorded as 1 (A herbicidal effect or phytotoxicity of 10% to less than 30%). Moreover, the “Herbicidal effect to Mo” value in test [2] is given as 1 (A herbicidal effect or phytotoxicity of 10% to less than 30%).
With `CC1(CCl)CC(S(=O)(=O)Cc2ccccc2F)=NO1` (stereo not drawn) [Comparative compound 2, reference compound], the “Herbicidal effect to Sc” value in test [1] is reported as 1 (A herbicidal effect or phytotoxicity of 10% to less than 30%). Also, in test [2], the “Herbicidal effect to Mo” value was 1 (A herbicidal effect or phytotoxicity of 10% to less than 30%).
As for `CCc1ccccc1CS(=O)(=O)C1=NOC(C)(C)C1` [Compound 1-8], the “Herbicidal effect to Eo” value in test [3] is 5 (A herbicidal effect or phytotoxicity of 90% or more). In addition, the “Herbicidal effect to Ec” value in test [4] (setting [9]) and in test [5] was 5 (A herbicidal effect or phytotoxicity of 90% or more) throughout. Also, the “Herbicidal effect to Sc” value in test [1] is reported as 4 (A herbicidal effect or phytotoxicity of 70% to less than 90%). For the same compound, in test [2], the “Herbicidal effect to Mo” value is recorded as 5 (A herbicidal effect or phytotoxicity of 90% or more). Further, the “Herbicidal effect to Se” value in test [6] (setting [9]) is reported as 5 (A herbicidal effect or phytotoxicity of 90% or more).
`CC(C)Oc1ccccc1CS(=O)(=O)C1=NOC(C)(C)C1` [Compound 1-49]: the “Herbicidal effect to Eo” value in test [3] is 5 (A herbicidal effect or phytotoxicity of 90% or more). The “Herbicidal effect to Ec” value in test [4] (setting [9]) and in test [5] was 5 (A herbicidal effect or phytotoxicity of 90% or more) throughout. Also, in test [1], the “Herbicidal effect to Sc” value is 5 (A herbicidal effect or phytotoxicity of 90% or more). For the same compound, in test [2], the “Herbicidal effect to Mo” value was 5 (A herbicidal effect or phytotoxicity of 90% or more). In test [6] (setting [9]), the “Herbicidal effect to Se” value is 5 (A herbicidal effect or phytotoxicity of 90% or more).
Consider `O=S(=O)(Cc1c(F)cccc1F)C1=NOC2(CCC2)C1` [Compound 1-382], for which the “Herbicidal effect to Eo” value in test [3] is 5 (A herbicidal effect or phytotoxicity of 90% or more). Besides, the “Herbicidal effect to Ec” value in test [4] (setting [9]) was 5 (A herbicidal effect or phytotoxicity of 90% or more). Besides, the “Herbicidal effect to Sc” value in test [1] is 4 (A herbicidal effect or phytotoxicity of 70% to less than 90%). Also, in test [2], the “Herbicidal effect to Mo” value is given as 5 (A herbicidal effect or phytotoxicity of 90% or more). Moreover, the “Herbicidal effect to Se” value in test [6] (setting [9]) is 5 (A herbicidal effect or phytotoxicity of 90% or more).
As for `CC1(C)CC(S(=O)(=O)Cc2c(F)cccc2[N+](=O)[O-])=NO1` [Compound 1-499], in test [3], the “Herbicidal effect to Eo” value is 5 (A herbicidal effect or phytotoxicity of 90% or more). The “Herbicidal effect to Ec” value in test [4] (setting [10]) and in test [5] was 5 (A herbicidal effect or phytotoxicity of 90% or more) each time. Besides, the “Herbicidal effect to Ch” value in test [7] is 4 (A herbicidal effect or phytotoxicity of 70% to less than 90%). Further, the “Herbicidal effect to Po” value in test [8] is given as 5 (A herbicidal effect or phytotoxicity of 90% or more). For the same compound, the “Herbicidal effect to Se” value in test [6] (setting [10]) is given as 5 (A herbicidal effect or phytotoxicity of 90% or more).
Turning to `CC1(C)CC(S(=O)(=O)Cc2c(F)cc(F)cc2F)=NO1` [Compound 1-500], the “Herbicidal effect to Eo” value in test [3] was 5 (A herbicidal effect or phytotoxicity of 90% or more). Besides, the “Herbicidal effect to Ec” value in test [4] (setting [10]) and in test [5] was 5 (A herbicidal effect or phytotoxicity of 90% or more) throughout. Besides, in test [7], the “Herbicidal effect to Ch” value was 4 (A herbicidal effect or phytotoxicity of 70% to less than 90%). Moreover, in test [8], the “Herbicidal effect to Po” value is recorded as 5 (A herbicidal effect or phytotoxicity of 90% or more). The “Herbicidal effect to Se” value in test [6] (setting [10]) is 5 (A herbicidal effect or phytotoxicity of 90% or more).
As for `CC1(C)CC(S(=O)(=O)Cc2c(F)ccc(F)c2F)=NO1` [Compound 1-501], the “Herbicidal effect to Eo” value in test [3] was 5 (A herbicidal effect or phytotoxicity of 90% or more). For the same compound, the “Herbicidal effect to Ec” value in test [4] (setting [10]) and in test [5] was 5 (A herbicidal effect or phytotoxicity of 90% or more) throughout. For the same compound, in test [7], the “Herbicidal effect to Ch” value was 5 (A herbicidal effect or phytotoxicity of 90% or more). In test [8], the “Herbicidal effect to Po” value is 5 (A herbicidal effect or phytotoxicity of 90% or more). Further, the “Herbicidal effect to Se” value in test [6] (setting [10]) is given as 5 (A herbicidal effect or phytotoxicity of 90% or more).
Turning to `Cc1cc(C)cc(CS(=O)(=O)C2=NOC(C)(C)C2)c1` [Compound 1-523], the “Herbicidal effect to Eo” value in test [3] is 5 (A herbicidal effect or phytotoxicity of 90% or more). Moreover, the “Herbicidal effect to Ec” value in test [4] (setting [10]) and in test [5] was 5 (A herbicidal effect or phytotoxicity of 90% or more) throughout. The “Herbicidal effect to Ch” value in test [7] is recorded as 5 (A herbicidal effect or phytotoxicity of 90% or more). The “Herbicidal effect to Po” value in test [8] is 5 (A herbicidal effect or phytotoxicity of 90% or more). Further, the “Herbicidal effect to Se” value in test [6] (setting [10]) is given as 5 (A herbicidal effect or phytotoxicity of 90% or more).
Turning to `CCOc1cccc(F)c1CS(=O)(=O)C1=NOC(C)(C)C1` [Compound 1-526], the “Herbicidal effect to Eo” value in test [3] is 5 (A herbicidal effect or phytotoxicity of 90% or more). Further, the “Herbicidal effect to Ec” value in test [4] (setting [10]) and in test [5] was 5 (A herbicidal effect or phytotoxicity of 90% or more) in each case. The “Herbicidal effect to Ch” value in test [7] is listed as 5 (A herbicidal effect or phytotoxicity of 90% or more). Moreover, the “Herbicidal effect to Po” value in test [8] is 5 (A herbicidal effect or phytotoxicity of 90% or more). Besides, in test [6] (setting [10]), the “Herbicidal effect to Se” value was 5 (A herbicidal effect or phytotoxicity of 90% or more).
As to `CC1CC(S(=O)(=O)Cc2c(F)cccc2F)=NO1` (stereo not drawn) [Compound 1-532], in test [3], the “Herbicidal effect to Eo” value is 5 (A herbicidal effect or phytotoxicity of 90% or more). Moreover, the “Herbicidal effect to Ec” value in test [4] (setting [10]) was 5 (A herbicidal effect or phytotoxicity of 90% or more); in test [5], 4 (A herbicidal effect or phytotoxicity of 70% to less than 90%). The “Herbicidal effect to Ch” value in test [7] was 5 (A herbicidal effect or phytotoxicity of 90% or more). The “Herbicidal effect to Po” value in test [8] is 5 (A herbicidal effect or phytotoxicity of 90% or more). Also, the “Herbicidal effect to Se” value in test [6] (setting [10]) is 4 (A herbicidal effect or phytotoxicity of 70% to less than 90%).
For the compound `COc1cccc(F)c1CS(=O)(=O)C1=NOC(C)(C)C1` [Compound 1-534], in test [3], the “Herbicidal effect to Eo” value is reported as 5 (A herbicidal effect or phytotoxicity of 90% or more). Besides, the “Herbicidal effect to Ec” value in test [4] (setting [10]) and in test [5] was 5 (A herbicidal effect or phytotoxicity of 90% or more) throughout. Also, in test [7], the “Herbicidal effect to Ch” value is recorded as 5 (A herbicidal effect or phytotoxicity of 90% or more). The “Herbicidal effect to Po” value in test [8] was 5 (A herbicidal effect or phytotoxicity of 90% or more). Moreover, in test [6] (setting [10]), the “Herbicidal effect to Se” value is 5 (A herbicidal effect or phytotoxicity of 90% or more).
In the case of `COC(=O)c1cccc(F)c1CS(=O)(=O)C1=NOC(C)(C)C1` [Compound 1-555], the “Herbicidal effect to Eo” value in test [3] was 5 (A herbicidal effect or phytotoxicity of 90% or more). The “Herbicidal effect to Ec” value is reported as 5 (A herbicidal effect or phytotoxicity of 90% or more) in test [4] (setting [10]) and 4 (A herbicidal effect or phytotoxicity of 70% to less than 90%) in test [5]. Further, in test [7], the “Herbicidal effect to Ch” value is listed as 4 (A herbicidal effect or phytotoxicity of 70% to less than 90%). Further, in test [8], the “Herbicidal effect to Po” value is 5 (A herbicidal effect or phytotoxicity of 90% or more). The “Herbicidal effect to Se” value in test [6] (setting [10]) is 5 (A herbicidal effect or phytotoxicity of 90% or more).
`CC1(C)CC(S(=O)(=O)Cc2c(F)cccc2OC(F)F)=NO1` [Compound 1-573]: in test [3], the “Herbicidal effect to Eo” value was 5 (A herbicidal effect or phytotoxicity of 90% or more). For the same compound, the “Herbicidal effect to Ec” value in test [4] (setting [10]) and in test [5] was 5 (A herbicidal effect or phytotoxicity of 90% or more) in each case. In addition, in test [7], the “Herbicidal effect to Ch” value is reported as 5 (A herbicidal effect or phytotoxicity of 90% or more). Also, the “Herbicidal effect to Po” value in test [8] is listed as 5 (A herbicidal effect or phytotoxicity of 90% or more). Also, in test [6] (setting [10]), the “Herbicidal effect to Se” value is recorded as 5 (A herbicidal effect or phytotoxicity of 90% or more).

For the origin of these results see patent US6841519B1, “Isoxazoline derivatives and herbicides containing the same as the active ingredient” (Kumiai Chemical Industry Co., Ltd., priority 1999, dated 2005).
